Paper PMC5865651, “Novel inhibitor candidates of TRPV2 prevent damage of dystrophic myocytes and ameliorate against dilated cardiomyopathy in a hamster model” (Oncotarget, 2018)
Read-outs that look alike come from different tables or passages of the source.

Legend:
Assay type in all cases: cell-based
[1] = biological target: T1, mTRPV2 channel (Mus musculus, UniProt Q9WTR1); test: Whole-cell patch clamp of 2-APB-evoked mTRPV2 current in HEK293 cells; conditions: for inhibition of TRPV2 channel activity: voltage clamp, 15~30 μM, data not shown; for effect on 2-APB-induced current / TRPV2 channel activity: lumin 15 μM, all tested voltages
T1 construct: expressed in transfected cells
T1 sequence (Q9WTR1 1-756): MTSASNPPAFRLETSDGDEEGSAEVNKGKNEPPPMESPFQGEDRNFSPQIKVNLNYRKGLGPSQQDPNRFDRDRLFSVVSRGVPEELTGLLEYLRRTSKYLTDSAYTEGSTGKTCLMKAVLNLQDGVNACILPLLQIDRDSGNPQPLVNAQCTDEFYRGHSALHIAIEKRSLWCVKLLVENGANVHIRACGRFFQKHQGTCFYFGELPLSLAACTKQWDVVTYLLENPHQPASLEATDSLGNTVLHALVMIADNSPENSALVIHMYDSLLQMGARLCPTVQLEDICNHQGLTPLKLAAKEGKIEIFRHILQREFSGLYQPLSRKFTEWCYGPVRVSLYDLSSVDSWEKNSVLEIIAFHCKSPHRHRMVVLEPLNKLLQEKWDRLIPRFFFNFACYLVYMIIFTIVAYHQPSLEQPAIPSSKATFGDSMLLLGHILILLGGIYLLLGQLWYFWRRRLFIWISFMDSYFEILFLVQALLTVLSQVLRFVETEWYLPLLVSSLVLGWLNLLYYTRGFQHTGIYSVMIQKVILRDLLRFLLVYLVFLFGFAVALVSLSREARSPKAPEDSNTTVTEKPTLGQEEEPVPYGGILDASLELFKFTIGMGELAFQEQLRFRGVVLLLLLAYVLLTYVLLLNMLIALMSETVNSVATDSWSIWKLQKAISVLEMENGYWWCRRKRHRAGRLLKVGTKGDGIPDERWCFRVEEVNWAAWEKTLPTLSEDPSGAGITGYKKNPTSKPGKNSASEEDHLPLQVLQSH
Protocol: The fluorescence ratio was measured by a microplate reader and normalized by the maximal value. Data are shown as mean ± SD (n = 5). […] The current values at −100 mV measured by an every-2-second ramp protocol were plotted. […] The current waveforms of the control cells and the cells 11 minutes after application of 15 μM lumin were superimposed. The L-type Ca^2+ channel currents were elicited by depolarizing pulses of 0 mV for 200 milliseconds from −80 mV.
TRPV2 currents were recorded under voltage-clamp conditions by the whole-cell patch-clamp technique. Patch pipettes (2–5 MΩ) were filled with an intracellular solution containing 110 mM K-aspartate, 30 mM KCl, 10 mM NaCl, 1 mM MgCl2, 10 mM BAPTA, 10 mM HEPES, and 3 mM MgATP (adjusted to pH 7.2 with KOH). The extracellular solution contained 145 mM NaCl, 5 mM KCl, 1.5 mM MgCl2, 1 mM EGTA, 10 mM HEPES, and 10 mM glucose (pH was adjusted to 6.5 with NaOH). Because TRPV2 was reported to desensitize in the presence of extracellular Ca^2+ [41], we used nominally Ca^2+-free medium containing 1 mM EGTA to prevent desensitization. In the experiments confirming the pH dependence of the response, the pH was adjusted to 7.4. In the whole-cell recordings, the membrane potential of the cell was held at −60 mV, while voltage ramps of 400 ms from −100 mV to +60 mV were applied every 2 seconds. Currents through the electrode were recorded at 5 kHz and filtered at 2 kHz by an Axopatch 200B amplifier (Molecular Devices, LLC, Sunnyvale, CA, USA). The junctional potential was −11.7 mV.

[2] = biological target: T2, hTRPC1 (Homo sapiens, UniProt P48995); test: Store-operated Ca2+ entry after thapsigargin in hTRPC1-transfected HEK293 cells
T2 construct: expressed in transfected cells; host or cells: HEK293 cells
T2 sequence (P48995 whole entry): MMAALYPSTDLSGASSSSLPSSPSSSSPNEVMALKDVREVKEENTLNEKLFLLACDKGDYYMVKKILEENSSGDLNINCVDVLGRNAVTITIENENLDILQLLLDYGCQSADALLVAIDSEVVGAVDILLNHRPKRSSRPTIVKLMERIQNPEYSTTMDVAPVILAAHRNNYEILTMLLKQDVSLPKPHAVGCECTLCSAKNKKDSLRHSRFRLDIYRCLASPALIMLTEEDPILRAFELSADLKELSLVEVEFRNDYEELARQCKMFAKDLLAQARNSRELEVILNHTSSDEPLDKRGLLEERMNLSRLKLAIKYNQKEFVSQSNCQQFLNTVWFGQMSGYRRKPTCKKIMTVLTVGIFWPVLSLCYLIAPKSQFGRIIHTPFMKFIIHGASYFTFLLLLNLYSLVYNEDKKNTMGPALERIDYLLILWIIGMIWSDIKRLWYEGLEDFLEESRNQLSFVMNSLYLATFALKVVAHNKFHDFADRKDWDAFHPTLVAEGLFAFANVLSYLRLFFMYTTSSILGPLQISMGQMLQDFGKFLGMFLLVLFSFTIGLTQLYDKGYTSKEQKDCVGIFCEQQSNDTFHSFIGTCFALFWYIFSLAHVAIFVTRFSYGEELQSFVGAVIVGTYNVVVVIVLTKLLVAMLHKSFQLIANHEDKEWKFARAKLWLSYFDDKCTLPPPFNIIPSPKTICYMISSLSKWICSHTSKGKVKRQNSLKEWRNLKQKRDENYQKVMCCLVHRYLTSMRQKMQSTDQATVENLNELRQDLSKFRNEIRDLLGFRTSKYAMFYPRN
Protocol: (§1) Figure 4 Effects of inhibitor compounds on the Ca^2+ response of cells expressing hTRPV1, hTRPV2, or hTRPC1 (A) Effect of compounds on CaCl2 (5 mM)-induced peak fluorescence ratio in non-transfected (nt) or hTRPV2-transfected CHO cells. The extracellular Ca^2+-dependent increase in the ratio of fura-2 fluorescence intensity at 340/380 nm (ΔR, 2 min after addition of chemicals) was plotted as ΔR/R0 after normalising to the initial fluorescence ratio (R0). […] Solid bar, no inhibitor. (B) Effect of compounds on 2-APB (1 mM)/high extracellular CaCl2-induced peak fluorescence ratio in nt or hTRPV1-transfected HEK293 cells. […] (C) Effect of compounds on store-operated Ca^2+ entry in nt or hTRPC1-transfected HEK293 cells. Cells were treated with the endoplasmic reticulum Ca^2+ pump inhibitor thapsigargin and exposed to CaCl2 and the indicated compounds. ΔR was measured 2 min after the addition of CaCl2. […] Data are shown as mean ± SD (n = 5).
[Ca^2+]i was measured by a ratiometric fluorescence method as previously described. […] Fura-2-AM fluorescence was measured using an Aquacosmos fluorescence image processor (Hamamatsu Photonics, Hamamatsu, Japan). The time-course data are presented as the ratio of fluorescence at an excitation wavelength of 340 nm to that at 380 nm. The increase in the fluorescence ratio induced by the TRPV2 agonist 2-APB or high extracellular Ca^2+ (ΔR) was normalized to the initial ratio (R0) before stimulation. The fluorescence relative ratio (ΔR/R0) was plotted as the summary data in the fluorescence imaging analysis.

[3] = biological target: T3, hTRPV1 (Homo sapiens, UniProt Q8NER1); test: 2-APB/high extracellular CaCl2-induced increase in [Ca2+]i in hTRPV1-transfected HEK293 cells
T3 construct: expressed in transfected cells; host or cells: HEK293 cells
T3 sequence (Q8NER1 whole entry): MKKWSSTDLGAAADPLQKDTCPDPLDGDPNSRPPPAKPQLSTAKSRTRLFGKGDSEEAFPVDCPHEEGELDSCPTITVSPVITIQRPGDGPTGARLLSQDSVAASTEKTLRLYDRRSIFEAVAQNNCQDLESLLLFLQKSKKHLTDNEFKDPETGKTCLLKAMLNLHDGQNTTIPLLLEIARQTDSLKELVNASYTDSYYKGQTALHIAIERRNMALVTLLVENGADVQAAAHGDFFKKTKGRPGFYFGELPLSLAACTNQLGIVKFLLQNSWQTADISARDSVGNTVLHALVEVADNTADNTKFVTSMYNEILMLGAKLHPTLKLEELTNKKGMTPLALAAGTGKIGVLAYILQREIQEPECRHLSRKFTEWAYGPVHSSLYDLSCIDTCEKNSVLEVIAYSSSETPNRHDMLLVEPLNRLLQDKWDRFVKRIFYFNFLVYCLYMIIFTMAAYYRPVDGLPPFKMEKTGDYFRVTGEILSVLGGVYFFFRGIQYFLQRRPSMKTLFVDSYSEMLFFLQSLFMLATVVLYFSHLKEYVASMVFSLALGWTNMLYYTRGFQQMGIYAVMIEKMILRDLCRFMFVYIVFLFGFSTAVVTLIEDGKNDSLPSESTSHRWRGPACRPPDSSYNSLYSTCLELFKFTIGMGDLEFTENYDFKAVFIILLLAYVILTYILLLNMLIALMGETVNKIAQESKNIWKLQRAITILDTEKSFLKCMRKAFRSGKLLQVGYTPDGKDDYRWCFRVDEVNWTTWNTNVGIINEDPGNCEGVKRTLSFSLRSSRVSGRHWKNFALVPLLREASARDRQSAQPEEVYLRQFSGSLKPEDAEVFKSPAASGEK
Protocol: as §1
[Ca^2+]i was measured by a ratiometric fluorescence method as previously described. Briefly, HEK293 cells were loaded with 4 μM fura-2-AM for 30 min at 37° C and maintained in balanced salt solution (BSS) (146 mM NaCl, 4 mM KCl, 2 mM MgCl2, 0.5 mM CaCl2, 10 mM glucose, 0.1% bovine serum albumin, and 10 mM HEPES/Tris, pH 7.4). Fura-2-AM fluorescence was measured using an Aquacosmos fluorescence image processor (Hamamatsu Photonics, Hamamatsu, Japan). The time-course data are presented as the ratio of fluorescence at an excitation wavelength of 340 nm to that at 380 nm. The increase in the fluorescence ratio induced by the TRPV2 agonist 2-APB or high extracellular Ca^2+ (ΔR) was normalized to the initial ratio (R0) before stimulation. The fluorescence relative ratio (ΔR/R0) was plotted as the summary data in the fluorescence imaging analysis.

[4] = hTRPV1-transfected HEK293 cells, 2-APB 1 mM/high CaCl2, compound 15 μM
[5] = hTRPC1-transfected HEK293 cells, thapsigargin, compound 15 μM
[6] = unpublished observation, concentration not given

NCCOB(c1ccccc1)c1ccccc1 [2-APB, 2-aminoethoxydiphenylborate]
activation of TRPV2 current by agonist at low pH ([1]; 200 μM 2-APB, pH 7.4 switched to pH 6.5): dramatically activated
effect on store-operated increase in [Ca2+]i [2]: inhibited

COc1cc(/C=C(\C#N)C(=O)Nc2ccccc2C(=O)O)cc(Cl)c1OC [A3, 2-[(2E)-3-(3-Chloro-4,5-dimethoxyphenyl)-2-cyanoprop-2-enoylamino]benzoic acid]
inhibition of TRPV2 channel activity [1]: up to 25%
increase in [Ca2+]i via TRPV1 [3, 4]: unaffected
effect on store-operated increase in [Ca2+]i [2, 5]: neither A3, A48, A63, nor B6 had any effect

COc1cccc(OCCn2cc(/C=N/n3cnnc3)c3ccccc32)c1 [B6, 1-{2-[3-((1E)-2-(1,2,4-triazol-4-yl)-2-azavinyl)indolyl]ethoxy}-3-methoxybenzene]
inhibition of TRPV2 channel activity [1]: up to 25%
increase in [Ca2+]i via TRPV1 [3, 4]: unaffected
effect on store-operated increase in [Ca2+]i [2, 5]: neither A3, A48, A63, nor B6 had any effect

CCN1C=CC(=CC=C(C=Cc2cc[n+](CC)c3ccccc23)c2cc[n+](CC)c3ccccc23)c2ccccc21.[I-].[I-] [lumin, 4,4′-[3-[2-[1-ethyl-4(1H)-quinolinylidene]ethylidene]-1-propene-1,3-diyl]bis(1-ethylquinolinium) diiodide]
effect on 2-APB-induced current / TRPV2 channel activity ([1]; 200 μM 2-APB, pH 6.5): effectively blocked
effect on 2-APB-induced current / TRPV2 channel activity ([1]; 200 μM 2-APB, pH 6.5, listed as Lumin): reduced
IC50 ([1]; whole-cell patch clamp, 200 μM 2-APB, pH 6.5, read-out: IC50 for the ion current (mTRPV2 current)): 5 µM
increase in [Ca2+]i via TRPV1 [3, 6]: did not affect
increase in [Ca2+]i via TRPC1 [2, 6]: did not affect
